Results: patent US5681738A, “Use of 10-oxo-trans-8-decenoic acid in mushroom cultivation” (The Penn State Research Foundation, priority 1992, dated 1997)

Experiments:
[1] = system: separated stipes of Agaricus bisporus; experiment: Elongation of upper stipes of separated stipes (upper and lower portions) on test agar containing ODA, 3-day storage at 12° C.; set-up: species or system Agaricus bisporus (hybrid off-white); conditions: for % Elongation of upper stipes, Mean: control 14.4
Procedure: Four type strains of mushrooms were used: the white, off-white, hybrid white (U3) and hybrid off-white (U1). Mushrooms from each flush were harvested before the veil was broken. Freshly harvested mushrooms were transported within about one hour after harvest to Borland Laboratory and placed in the pilot plant cold room (4° C.) for about two hours before sampling. Mushrooms were sorted on the basis of size and appearance. Diseased, damaged, misshapen, veil-opened and extremely large or small mushrooms (>40 or <25 mm in cap diameter) were discarded. Mushrooms of uniform size (25-40 mm) and maturity of the button stage (stage 1, veil intact tightly) were used in this research.
Whole stipes were cut at the lower portions to a length of 7-9 mm to standardize the sample, and marked at the middle of the veil, which is the location where the veil attaches to the stipe, to indicate the upper and lower stipes. The separated stipes contained 2-4 mm of upper stipes and 5-6 nun of lower stipes. For the study using separated upper stipes, mushrooms were dissected directly into upper stipes with a length of 3-5 mm. The separated stipes or upper stipes were put upside down on the test agar containing various mushroom supernatants or ODA concentrations; i.e., the upper sides in contact with the agar surface (FIG. 12). All petri dishes were covered and stored at 12° C. The length of separated stipes and upper stipes was measured using a vernier caliper before and after certain days of storage.
Sterile ODA solutions were aseptically added into the autoclaved agar solutions to achieve the desired final ODA concentrations. The agar solution was then dispensed into dishes, ca 20.8 mL per dish. The level of ODA tested included 10^-4, 10^-5, 10^-6, 10^-7, and 10^-8 M. Mushrooms (hybrid off-white) from 6 different crops were used to study their postharvest growth. In the first 2 experiments, mushroom stipes were measured after 4-day storage at 12° C. In order to prevent stipe deterioration and desiccation of the test agar, in the following experiments mushroom stipes were measured after 3-day storage at 12° C.
The experimental data were subjected to a single classification analysis of variance (AOV) for a completely randomized design (Steele et al., 1980). Fisher's protected least significant difference (LSD) was applied to separate the means. The level of significance used in this research was 0.05.
ODA stimulated the elongation of upper stipes in excess of the control, but the response occurred only when the lower portions were present. The additional elongation of upper stipes was stimulated by ODA at a concentration as low as 10^-8 M (0.00184 ppm).

[2] = system: Agaricus bisporus mycelia; experiment: Dry matter of mycelia grown in potato dextrose yeast broth at 25° C.; format: cell-based, Agaricus bisporus (hybrid off-white); conditions: Week 5, control 15.6 b
Procedure: The commercial mushroom spawn (hybrid off-white), Agaricus bisporus (Lange) Imbach, was obtained from Alpha Spawn Co., Avondale, Pa., and inoculated onto potato dextrose yeast (PDY) agar (Difco) and incubated at 25° C. A pure culture was obtained from the grain spawn grown on petri dishes and re-inoculated into PDY agar and maintained at 25° C. before use.
The mushroom culture was grown on PDY agar or in PDY broth, both containing 0.5% yeast extract. The broth was dispensed into flasks prior to autoclaving, 50 mL. per flask, while 5 mL of sterile ODA solutions were aseptically added into flasks before inoculation.
To prepare ODA solutions, about 18.4 mg (0.1 mmole) of 10-oxo-trans-8-decenoic acid prepared as described above were dissolved in i mL ethanol and diluted with deionized water to 100 mL to give a molar concentration of 10^-3 M, and then diluted in order to add 1.0 mL of the solutions to each flask to give the required final concentrations.
Sterile ODA solutions were aseptically added into the autoclaved agar medium to achieve the desired final ODA concentrations, and then the medium was dispensed into petri dishes, ca 30 ml per dish. The levels of ODA tested included 2×10^-4, 10^-4, 10^-5, 10^-6 and 10^-7 M for both PDY agar and broth. These flasks and dishes were inoculated with 1 mm mycelial plugs from 4-week old cultures and incubated statically at 25° C. for 5 weeks. Each week, ca 300 μL of broth was aseptically taken from the flasks for laccase assay, while the colony diameter of every petri dish was measured using a vernier caliper to calculate the linear growth of the culture.
After 5-weeks of incubation, the dry matter of mycelia was determined by vacuum filtering liquid cultures in PDY broth through weighed filter paper, and drying to constant weight at 70° C.
Methods for the estimation of total fungal growth include the measurement of dry matter, linear growth, carbon dioxide evolution, chitin, ATP as well as extracellular laccase activity (Cochrane, (1958); Wood, (1979)). In this research the linear growth rate was used to examine the growth of mushroom mycelia on agar plates, while the extracellular laccase activity and dry matter were determined to estimate the growth of mycelia in liquid cultures. Extracellular laccases (p-diphenol: oxygen oxidoreductase, EC 1.10.3.2) produced by various classes of fungi are reported to be involved in biotransformation of lignin and lignosulfonate (Anders et al., (1976)), as well as in the breakdown of cellulose by cellulase (Westermark et al., (1974a); Westermark et al., (1974b); Haars et al., (1980)). Although the role of laccase in growth and development of Agaricus bisporus is not well defined, it has been observed that laccase production correlated with mycelial biomass of this fungus (Wood, (1979); Matcham et al., (1985); Claydon et al., (1988)).

[3] = Solubility; format: physicochemical
[4] = system: separated stipes of Agaricus bisporus; experiment: Elongation of separated stipes on test agar containing mushroom supernatants, 6-day storage at 12° C.; set-up: species or system Agaricus bisporus (off-white); conditions: as a function of added ODA
Procedure: Whole stipes were cut at the lower portions to a length of 7-9 mm to standardize the sample, and marked at the middle of the veil, which is the location where the veil attaches to the stipe, to indicate the upper and lower stipes. The separated stipes contained 2-4 mm of upper stipes and 5-6 nun of lower stipes. […] The length of separated stipes and upper stipes was measured using a vernier caliper before and after certain days of storage.
Sterile mushroom supernatants (25 mL), phosphate buffer and deionized H2 O were added aseptically into 175 mL agar solution prior to dispensing into dishes. […] The concentrations of ODA in the 2% agar were calculated to be 3.4×10^-6, 6.0×10^-5, and 1.2×10^-4 M for treatments 3, 4 and 5. […]

Structure (SMILES): O=C/C=C/CCCCCCC(=O)O [ODA, 10-oxo-trans-8-decenoic acid]
- minimal effective concentration ([1]; Agaricus bisporus, 72 h, 0.00184 ppm, separated stipes with lower portions, read-out: lowest concentration stimulating additional elongation of upper stipes): 0.01 µM
- % Elongation of upper stipes, Mean ([1]; ODA 10^-4 M (18.4 ppm)): 30.0%
- % Elongation of upper stipes ([1]; ODA 10^-4 M (18.4 ppm), rep 1, control 14.5): 25.1%
- % Elongation of upper stipes ([1]; ODA 10^-4 M (18.4 ppm), rep 2, control 11.6): 30.5%
- % Elongation of upper stipes ([1]; ODA 10^-4 M (18.4 ppm), rep 3, control 17.1): 34.2%
- % Elongation of upper stipes, Mean ([1]; ODA 10^-5 M (1.84 ppm)): 27.7%
- % Elongation of upper stipes ([1]; ODA 10^-5 M (1.84 ppm), rep 1, control 14.5): 30.7%
- % Elongation of upper stipes ([1]; ODA 10^-5 M (1.84 ppm), rep 2, control 11.6): 25.0%
- % Elongation of upper stipes ([1]; ODA 10^-5 M (1.84 ppm), rep 3, control 17.1): 27.4%
- % Elongation of upper stipes, Mean ([1]; ODA 10^-6 M (0.184 ppm)): 29.5%
- % Elongation of upper stipes ([1]; ODA 10^-6 M (0.184 ppm), rep 1, control 14.5): 27.5%
- % Elongation of upper stipes ([1]; ODA 10^-6 M (0.184 ppm), rep 2, control 11.6): 24.7%
- % Elongation of upper stipes ([1]; ODA 10^-6 M (0.184 ppm), rep 3, control 17.1): 36.2%
- % Elongation of upper stipes, Mean ([1]; ODA 10^-7 M (0.0184 ppm)): 30.9%
- % Elongation of upper stipes ([1]; ODA 10^-7 M (0.0184 ppm), rep 1, control 14.5): 27.3%
- % Elongation of upper stipes ([1]; ODA 10^-7 M (0.0184 ppm), rep 2, control 11.6): 38.3%
- % Elongation of upper stipes ([1]; ODA 10^-7 M (0.0184 ppm), rep 3, control 17.1): 27.2%
- % Elongation of upper stipes, Mean ([1]; ODA 10^-8 M (0.00184 ppm)): 30.5%
- % Elongation of upper stipes ([1]; ODA 10^-8 M (0.00184 ppm), rep 1, control 14.5): 23.7%
- % Elongation of upper stipes ([1]; ODA 10^-8 M (0.00184 ppm), rep 2, control 11.6): 32.7%
- % Elongation of upper stipes ([1]; ODA 10^-8 M (0.00184 ppm), rep 3, control 17.1): 35.1%
- effect on upper stipe elongation (in words) ([1]; all levels, only when lower portions present): significant effect
- Dry matter ([2]; ODA 2 × 10^-4 M (36.8 ppm)): 16.7 mg
- Dry matter ([2]; ODA 10^-4 M (18.4 ppm)): 23.2 mg
- Dry matter ([2]; ODA 10^-5 M (1.84 ppm)): 48.5 mg
- Dry matter ([2]; ODA 10^-6 M (0.184 ppm)): 44.1 mg
- Dry matter ([2]; ODA 10^-7 M (0.0184 ppm)): 16.9 mg
- solubility ([3]; acetone, chloroform, ethanol, ethyl ether, methanol, methylene chloride and water): soluble
- solubility ([3]; non-polar solvents such as pentane, hexane, heptane and benzene): slightly soluble
- elongation of lower stipes (in words) [4]: no differences
